{"source": "patent US8076485B2", "about": "“Methylphenidate derivatives and uses of them” (priority 2005, dated 2011)", "key": {"RAP-1": {"tested_on": "RAP-1", "assay": "RAP-1 activation pulldown assay in TRiPS cells", "assay_type": "cell-based, human", "conditions": "15 μg/ml", "procedure": "Day 10 TRiPS cells, 1×10^6, were incubated with 15 μg/ml of the compound of formula II (Cpd II) for 1 hour at 37° C. Then, the cells were incubated with CD3/CD28 beads (1 μl per 100,000 cells) (obtained from Dynal) for 10 minutes at 37° C. The cells were then lysed with a mild buffer (supplied with Pierce EZ-Detect activation kit described below) to produce cell extracts. Protein concentrations of the resulting extracts were determined by bicinchoninic acid (BCA) assay (Pierce) and placed on ice for immediate use.\nPulldown assays were performed using Pierce EZ-Detect activation kits according to the manufacturer's instructions utilizing GST-RAF-1-RBD and GST-RalGDS-RBD for Ras and RAP-1 respectively. Briefly, 400 μg total protein from each extract was combined with recombinant protein and glutathione resin and incubated at 4° C. for one hour with gentle shaking The resin was then washed to remove unbound protein and the activated Ras and RAP-1 proteins were removed by boiling in the presence of SDS-PAGE loading dye containing reducing agent. Ras and RAP-1 western blots were performed to visualize the proteins using antibodies supplied with the kit. Densitometry of the X-ray films was done by scanning and computer analysis."}, "[1]": {"tested_on": "CD3/CD28 stimulated TRiPS cells", "assay": "Custom AntibodyArray of cell extracts of CD3/CD28 stimulated TRiPS cells", "assay_type": "cell-based, human", "conditions": "15 μg/ml, 30 minutes; antibody array, phospho-specific detection", "procedure": "Day 18 TRiPS cells, 1×10^6, were incubated for 30 minutes at 37° C., either with nothing added (“Nil”), with 1 μl CD3/CD28 Dynabeads (Dynal, Oslo, Norway) (“CD3/CD28 beads”) per 100,000 cells, or with CD3/CD28 beads and 15 μg/ml of the compound of formula II (Cpd II). After the incubation, the cells were lysed in Cell-Lytic Mammalian Cell Extraction Reagent (Sigma). After centrifugation to pellet cellular debris, the supernatants (cell extracts) were obtained.\nThe cell extracts (supernatants) were then analyzed using a Custom AntibodyArray™ manufactured by Hypromatrix Inc., Worcester, Mass., following the manufacturer's instructions. The Custom AntibodyArray™ is a nylon membrane blotted with antibodies to the proteins listed below. Briefly, the cell extracts were incubated with duplicate Custom AntibodyArray™, s for 2 hours at room temperature with slow shaking, followed by three washes with Tris buffer (150 mM NaCl, 25 mM Tris, 0.05% Tween-20, pH 7.5). HRP-labeled antibodies specific for phosphorylated-tyrosine, phosphorylated-serine and phosphorylated-threonine in Tris buffer were added, and the arrays incubated for 2 hours. After three more washes with Tris buffer, a peroxidase-reactive luminescent substrate was added. The arrays were visualized by exposure to X-ray film. Densitometry of the X-ray films was measured by scanning and computer analysis."}, "[2]": {"tested_on": "peripheral blood lymphocytes (PBL)", "assay": "PHA-induced cell clumping of PBL", "assay_type": "cell-based, human", "conditions": "Example 1, PBL of donor GR283; compound 5, 15, 50 μg/ml; 5 μg/ml PHA; 72 hours", "procedure": "Whole blood was drawn from GR283, a human volunteer with known allergies, into a glass vacutainer tube containing no anticoagulant. This blood was allowed to clot, and the serum was removed by centrifugation and then heat inactivated by placing it in a water bath at 56° C. for 30 minutes. Whole blood from GR283 was also drawn into a glass vacutainer tube containing heparin and used for peripheral blood lymphocytes (PBL) isolation as follows. Whole blood was layered over room temperature Histopaque 1077 solution and centrifuged at 2000 rpm for 15 minutes at room temperature. Cells at the plasma-Histopaque interface were then removed and washed with culture medium (IMDM medium with 10% heat-inactivated GR283 serum plus 1% penicillin/streptomycin) at 37° C.\nThe compound of formula II (see above) and methylphenidate (both obtained from Dr. Jeffrey D. Winkler, University of Pennsylvania, Philadelphia, Pa.) in culture medium were added to wells of a 96-well plate to give final concentrations of 5 μg/ml, 15 μg/ml and 50 μg/ml of the compound of formula II and of methylphenidate. […] Then, GR283's PBL in culture medium were added to the wells to give a final concentration of 150,000 cells per well, and the plates were incubated at 37° C., 5% CO2 for 24 hours. […]"}, "NFκB": {"tested_on": "NFκB", "assay": "Activated NFκB in TNFα- or VEGF-treated HIAECs (TransAM assay)", "assay_type": "cell-based", "conditions": "Homo sapiens, VEGF 10 ng/ml, Cpd II 15 μg/ml, read-out: Percent Inhibition (NFκB)", "procedure": "Passage 8 (human iliac artery endothelial cells (HIAECs) (obtained from ATCC; catalog no. CC-2545) were grown to confluence in 25 cm^2 flasks in EGM-2 medium. Eighteen hours prior to the experiment, the medium was replaced with EGM-2 medium containing 0.1% FCS plus heparin, GA1000 (gentamycin) and bovine pituitary extract (all from Cambrex) to place the cells in a resting state. To perform the experiment the medium was aspirated from the flasks, and the following additives were added to the flasks in fresh medium (total volume of 5 ml/flask): 15 μg/ml of the compound of formula II (Cpd II) or 10 μM LY 294002. The flasks were incubated 2 hours at 37° C., 5% CO2. After this incubation, VEGF or TNFα was added to give a final concentration 10 ng/ml, and the flasks were incubated for an additional 30 minutes. Then, the amount of NFκB was determined using a TransAM™ NFκB p65/NFκB p50 Transcription Factor Assay Kit and a Nuclear Extract Kit from Active Motif North America, Carlsbad, Calif., as described in Example 12."}, "IL-8": {"tested_on": "IL-8", "assay": "IL-8 production by CD3/CD28-activated TRiPS cell line (ELISA)", "assay_type": "cell-based, human", "conditions": "15 μg/ml; CD3/CD28 Dynabeads, 24 hours"}}, "data": [{"compound": "COC(=O)C(c1ccc(-c2ccccc2)cc1)C1CCCCN1", "note": "(stereo not drawn) [Cpd II]", "values": [{"measurement": "inhibition of RAP-1", "setting": "RAP-1", "value": "appeared to inhibit RAP-1"}, {"measurement": "Effect of Cpd II on the protein in CD3/CD28 stimulated TRiPS cells: 14-3-3", "setting": "[1]", "value": "Slightly decreased the level"}, {"measurement": "Effect of Cpd II on the protein in CD3/CD28 stimulated TRiPS cells: IL-2", "setting": "[1]", "value": "Decreased level back to basal levels (Nil control)"}, {"measurement": "Effect of Cpd II on the protein in CD3/CD28 stimulated TRiPS cells: IL-4", "setting": "[1]", "value": "Decreased level back to basal levels (Nil control)"}, {"measurement": "Effect of Cpd II on the protein in CD3/CD28 stimulated TRiPS cells: IL-7y", "setting": "[1]", "value": "Decreased level back to basal levels (Nil control)"}, {"measurement": "Effect of Cpd II on the protein in CD3/CD28 stimulated TRiPS cells: IkB-r", "setting": "[1]", "value": "Decreased level back to basal levels (Nil control)"}, {"measurement": "Effect of Cpd II on the protein in CD3/CD28 stimulated TRiPS cells: IkB-α", "setting": "[1]", "value": "Slightly decreased the level"}, {"measurement": "Effect of Cpd II on the protein in CD3/CD28 stimulated TRiPS cells: IkB-β", "setting": "[1]", "value": "Decreased level back to basal levels (Nil control)"}, {"measurement": "Effect of Cpd II on the protein in CD3/CD28 stimulated TRiPS cells: IkB-ε", "setting": "[1]", "value": "Slightly decreased the level"}, {"measurement": "Effect of Cpd II on the protein in CD3/CD28 stimulated TRiPS cells: JAK2", "setting": "[1]", "value": "Activated"}, {"measurement": "Effect of Cpd II on the protein in CD3/CD28 stimulated TRiPS cells: JNK1", "setting": "[1]", "value": "Decreased level back to basal levels (Nil control)"}, {"measurement": "Effect of Cpd II on the protein in CD3/CD28 stimulated TRiPS cells: JNK2", "setting": "[1]", "value": "Decreased level back to basal levels (Nil control)"}, {"measurement": "Effect of Cpd II on the protein in CD3/CD28 stimulated TRiPS cells: JNK3", "setting": "[1]", "value": "Decreased level back to basal levels (Nil control)"}, {"measurement": "Effect of Cpd II on the protein in CD3/CD28 stimulated TRiPS cells: MEK1", "setting": "[1]", "value": "Decreased level to below basal levels (Nil control)"}, {"measurement": "Effect of Cpd II on the protein in CD3/CD28 stimulated TRiPS cells: MEKK1", "setting": "[1]", "value": "Decreased level back to basal levels (Nil control)"}, {"measurement": "Effect of Cpd II on the protein in CD3/CD28 stimulated TRiPS cells: PI3kinaseP85", "setting": "[1]", "value": "Activated"}, {"measurement": "Effect of Cpd II on the protein in CD3/CD28 stimulated TRiPS cells: RAP1", "setting": "[1]", "value": "Activated"}, {"measurement": "Effect of Cpd II on the protein in CD3/CD28 stimulated TRiPS cells: RAP2", "setting": "[1]", "value": "Activated"}, {"measurement": "Effect of Cpd II on the protein in CD3/CD28 stimulated TRiPS cells: STAT4", "setting": "[1]", "value": "Activated"}, {"measurement": "Effect of Cpd II on the protein in CD3/CD28 stimulated TRiPS cells: STAT5b", "setting": "[1]", "value": "Activated"}, {"measurement": "Effect of Cpd II on the protein in CD3/CD28 stimulated TRiPS cells: STAT6", "setting": "[1]", "value": "Slightly decreased the level"}, {"measurement": "amount of cell clumping induced by PHA", "setting": "[2]", "value": "reduced the amount of cell clumping induced by 5 μg/ml PHA in a dose-dependent manner"}, {"measurement": "inhibition at 15 µg/mL", "setting": "NFκB", "value": 70, "unit": "%"}, {"measurement": "IL-8 production by the TRiPS cell line", "setting": "IL-8", "value": "no effect"}]}]}
